One test addresses T1, CCKA (Cavia porcellus, UniProt Q63931).
T1 construct: The pancreatata were homogenised in 40 ml ice-cold HEPES buffer using a polytron; from tissue; host or cells: pancreas membranes of male Dunkin Hartley guinea-pigs
T1 sequence (Q63931 1-430): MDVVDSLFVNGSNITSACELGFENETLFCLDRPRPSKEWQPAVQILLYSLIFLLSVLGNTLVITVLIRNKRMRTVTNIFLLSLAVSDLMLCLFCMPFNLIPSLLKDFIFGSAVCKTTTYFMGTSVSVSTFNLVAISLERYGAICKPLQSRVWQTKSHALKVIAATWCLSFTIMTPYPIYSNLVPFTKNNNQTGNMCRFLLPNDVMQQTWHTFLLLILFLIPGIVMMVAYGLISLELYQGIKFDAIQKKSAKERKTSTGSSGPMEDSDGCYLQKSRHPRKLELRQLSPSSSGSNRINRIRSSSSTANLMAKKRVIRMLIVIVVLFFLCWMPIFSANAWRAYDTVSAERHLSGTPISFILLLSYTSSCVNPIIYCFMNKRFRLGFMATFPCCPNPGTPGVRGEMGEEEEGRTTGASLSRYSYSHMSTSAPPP
As to the kind of experiment: CCKA radioligand binding assay in guinea-pig pancreas membranes ([125I]-CCK8(S)). As to conditions: PD134,308 present, 150 minutes at 21±3°; for Ki: read-out: CCKA pKi (converted). An outline of the steps:
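Competition for [125I]-CCK8(S) (added as […] solution) ran for 150 min at 21±3° in HEPES pH 7.2. Membranes came from male guinea-pig pancreas at 1 mg/ml original wet weight, with 0.375 μM PD134,308 in the suspension. Filter-bound counts were gamma-counted; 100 nM L-364,718 (added solution) defined non-specific binding.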

The target in another test is T2, CCKB receptor (Mus musculus, UniProt P56481).
T2 construct: The cortex was dissected, weighed and homogenised in 40ml ice-cold buffer; tissue Charles River (supplier of the CD1 mice); host or cells: cerebral cortex membranes of male CD1 mice
T2 sequence (P56481 1-453): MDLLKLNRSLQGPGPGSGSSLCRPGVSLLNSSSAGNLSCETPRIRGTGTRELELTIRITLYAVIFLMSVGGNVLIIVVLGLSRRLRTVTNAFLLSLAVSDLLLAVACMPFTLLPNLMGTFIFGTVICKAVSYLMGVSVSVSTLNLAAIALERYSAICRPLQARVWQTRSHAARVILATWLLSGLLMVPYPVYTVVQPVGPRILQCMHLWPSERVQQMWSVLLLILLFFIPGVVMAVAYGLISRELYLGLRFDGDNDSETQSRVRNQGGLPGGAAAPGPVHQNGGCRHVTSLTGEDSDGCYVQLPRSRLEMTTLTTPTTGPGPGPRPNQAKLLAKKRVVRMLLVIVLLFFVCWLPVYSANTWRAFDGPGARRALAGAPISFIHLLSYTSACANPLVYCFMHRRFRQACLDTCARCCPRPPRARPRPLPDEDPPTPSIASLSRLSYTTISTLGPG
Briefly: CCKB receptor radioligand binding assay in mouse cortical membranes ([125I]-CCK8S). As to conditions: [125I]-CCK8S 200 pM, 150 min at 21±3°; for Ki: read-out: CCKB pKi (converted). The essentials:
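This was competition binding with tracer [125I]-CCK8S (200 pM solution added), run for 150 min at 21±3° on male CD1 mouse cortex membranes in pH 7.2 HEPES buffer with bacitracin. Filtration then gamma counting gave bound radioactivity. L-365,260 set the non-specific level.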

The target of the next test is T3, gastrin (Rattus norvegicus, UniProt P30553).
T3 construct: The stomach was lowered into a jacketed organ bath containing 40 ml of buffered solution; from tissue; host or cells: isolated perfused whole stomach of immature rats (ca. 21 days old)
T3 sequence (P30553 1-452): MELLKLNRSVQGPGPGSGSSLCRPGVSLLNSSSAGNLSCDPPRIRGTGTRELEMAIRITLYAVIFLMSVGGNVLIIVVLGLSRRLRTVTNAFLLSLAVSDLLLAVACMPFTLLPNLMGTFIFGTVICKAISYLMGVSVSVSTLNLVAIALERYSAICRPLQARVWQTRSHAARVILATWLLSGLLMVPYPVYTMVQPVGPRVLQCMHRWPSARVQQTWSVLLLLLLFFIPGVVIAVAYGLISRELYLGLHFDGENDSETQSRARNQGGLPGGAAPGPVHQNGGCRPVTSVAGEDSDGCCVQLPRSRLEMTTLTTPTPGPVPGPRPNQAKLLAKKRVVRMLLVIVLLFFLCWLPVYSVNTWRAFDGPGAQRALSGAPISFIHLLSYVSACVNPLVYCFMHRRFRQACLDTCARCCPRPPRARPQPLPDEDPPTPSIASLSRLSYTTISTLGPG
As to the kind of experiment: gastrin antagonist activity in an immature rat stomach assay (pentagastrin-stimulated acid secretion). The following applies: cumulative pentagastrin dose-response curves after 60 min with drug; for Kb: read-out: Gastrin pKB (converted). The essentials: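 Isolated lumen-perfused immature rat stomach (33-50 g, ca. 21 days) in 37° organ bath with 3×10^-8 M 5-methylfurmethide; acid secretion read by pH electrode in perfusate. Compound added to serosal bath after 120 min stabilisation; cumulative pentagastrin dose-response curves begun 60 min later and analysed by the Black et al. method.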

Each structure is given as a SMILES string.

As for `O=C(O)c1cc(NC(=O)[C@@H](Cc2ccccc2)NC(=O)c2cc3[nH]cnc3cc2C(=O)NCC23CC4CC(CC(C4)C2)C3)cc(C(=O)O)c1` [Example 61, 5-(1R-(3,5-dicarboxyphenylaminocarbonyl)-2-phenylethylaminocarbonyl)-6-(1-adamantanemethylaminocarbonyl)-benzimidazole], the Ki at CCKA is 6310 nM; on CCKB receptor it was 3.98 nM. The Kb at gastrin was 2 nM.

Regarding `O=C(O)c1cc(NC(=O)[C@H](Cc2ccccc2)NC(=O)c2cc3[nH]cnc3cc2C(=O)NCC2CCCCCC2)cc(C(=O)O)c1` [Example 62, 5-(1S-(3,5-dicarboxyphenylaminocarbonyl)-2-phenylethylaminocarbonyl)-6-(1-cycloheptanemethylaminocarbonyl)-benzimidazole], the Ki is 3980 nM at CCKA and 15.8 nM at CCKB receptor. Moreover, on gastrin, the Kb was 6.31 nM.

`O=C(NCC12CC3CC(CC(C3)C1)C2)c1cc2nc[nH]c2cc1C(=O)N[C@@H](Cc1ccccc1)C(=O)NCc1ccc(F)cc1` [Example 67, 5-(1S-(4-fluorophenylmethylaminocarbonyl)-2-phenylethylaminocarbonyl)-6-(1-adamantanemethylaminocarbonyl)-benzimidazole]: the Ki at CCKA is 2000 nM; on CCKB receptor, 501 nM. Further, the Kb on gastrin is 158 nM.

In the case of `O=C(O)c1cc(NC(=O)[C@H](Cc2c[nH]cn2)NC(=O)c2cc3[nH]cnc3cc2C(=O)NCC23CC4CC(CC(C4)C2)C3)cc(C(=O)O)c1` [Example 69, 5-(1S-(3,5-dicarboxyphenylaminocarbonyl)-2-(2,4-imidazolyl)ethylaminocarbonyl)-6-(1-adamantanemethylaminocarbonyl)-benzimidazole], the Ki at CCKA is 7940 nM; on CCKB receptor, 316 nM. At gastrin, the Kb is 79.4 nM.

Regarding `O=C(O)c1cc(NC(=O)[C@H](Cc2ccccc2F)NC(=O)c2cc3[nH]cnc3cc2C(=O)NCC2CCCCCC2)cc(C(=O)O)c1` [Example 70, 5-(1S-(3,5-dicarboxyphenylaminocarbonyl)-2-(2-fluorophenyl)ethylaminocarbonyl)-6-(cycloheptanemethylaminocarbonyl)-benzimidazole], the Ki on CCKA was 7940 nM; on CCKB receptor, 7.94 nM. Moreover, the Kb at gastrin was 15.8 nM.

On to `C[C@H](NC(=O)c1cc2[nH]cnc2cc1C(=O)NCC12CC3CC(CC(C3)C1)C2)C(=O)Nc1cc(C(=O)O)cc(C(=O)O)c1` [Example 71, 5-(1S-(3,5-dicarboxyphenylaminocarbonyl)-ethylaminocarbonyl)-6-(1-adamantanemethylaminocarbonyl)-benzimidazole], for which the Ki on CCKA is 5010 nM; on CCKB receptor, 398 nM. Further, the Kb on gastrin was 100 nM.

Consider `C[C@H](NC(=O)c1cc2[nH]cnc2cc1C(=O)NCC1CCCCCC1)C(=O)Nc1cc(C(=O)O)cc(C(=O)O)c1` [Example 72, 5-(1S-(3,5-dicarboxyphenylaminocarbonyl)-ethylaminocarbonyl)-6-(cycloheptanemethylaminocarbonyl)-benzimidazole], for which the “CCKA pKi” value at CCKA is given as 5.6. The “CCKB pKi” value on CCKB receptor came out at 6.0. Further, the “Gastrin pKB” value on gastrin turned out to be 6.3.

Regarding `CN(C(=O)[C@H](Cc1ccccc1)NC(=O)c1cc2[nH]cnc2cc1C(=O)NCC12CC3CC(CC(C3)C1)C2)c1cc(C(=O)O)cc(C(=O)O)c1` [Example 73, 5-(1S-(3,5-dicarboxyphenyl-N-(methyl)amino-carbonyl)-2-phenylethylaminocarbonyl)-6-(1-adamantane-methylaminocarbonyl)-benzimidazole], at CCKA, the Ki is 6310 nM. Also, on CCKB receptor, the “CCKB pKi” value is 6.3. Besides, the Kb on gastrin was 63.1 nM.

For `Cn1cnc2cc(C(=O)N[C@@H](Cc3ccccc3)C(=O)Nc3cc(C(=O)O)cc(C(=O)O)c3)c(C(=O)NCC34CC5CC(CC(C5)C3)C4)cc21` [Example 74, N-methyl-5-(1S-(3,5-dicarboxyphenylaminocarbonyl)-2-phenylethylaminocarbonyl)-6-(1-adamantanemethylaminocarbonyl)-benzimidazole], on CCKA, the “CCKA pKi” value stood at 5.3. Also, the “CCKB pKi” value on CCKB receptor came to 7.6. Also, on gastrin, the “Gastrin pKB” value is listed as 9.0.

Consider `O=C(O)c1cc(NC(=O)[C@H](Cc2ccccc2)NC(=O)c2cc3[nH]cnc3cc2C(=O)NCC23CC4CC(CC(C4)C2)C3)ccc1F` [Example 75, 5-(1S-(3-carboxy-4-fluoro-phenylaminocarbonyl)-2-phenylethylaminocarbonyl)-6-(1-adamantanemethylaminocarbonyl)-benzimidazole], for which, at CCKA, the “CCKA pKi” value amounted to 6.1. The “CCKB pKi” value on CCKB receptor was 7.8. Besides, the “Gastrin pKB” value on gastrin amounted to 7.7.

In the case of `O=C(O)CNC(=O)[C@H]1CCCN1C(=O)c1cc2[nH]cnc2cc1C(=O)NCC12CC3CC(CC(C3)C1)C2` [Example 76, 5-(2R-carboxymethylaminocarbonylpyrrolidino-carbonyl)-6-(1-adamantanemethylaminocarbonyl)-benzimidazole], the Ki at CCKA is more than 10000 nM; on CCKB receptor, 631 nM. Besides, the Kb at gastrin is 126 nM.

For `O=C(O)c1cc(NC(=O)[C@@H]2CCCN2C(=O)c2cc3[nH]cnc3cc2C(=O)NCC23CC4CC(CC(C4)C2)C3)cc(C(=O)O)c1` [Example 77, 5-(2S-(3,5-dicarboxyphenylaminocarbonyl)-pyrrolidinocarbonyl)-6-(1-adamantanemethylaminocarbonyl)-benzimidazole], the Ki on CCKA was more than 10000 nM; on CCKB receptor, 251 nM. Further, the Kb on gastrin was 100 nM.

As for `O=C(O)c1ccc(C(=O)O)c(NC(=O)[C@H](Cc2ccccc2)NC(=O)c2cc3[nH]cnc3cc2C(=O)NCC23CC4CC(CC(C4)C2)C3)c1` [Example 78, 5-(1S-(2,5-dicarboxyphenylaminocarbonyl)-2-phenylethylaminocarbonyl)-6-(1-adamantanemethylaminocarbonyl)-benzimidazole], at CCKA, the “CCKA pKi” value was 5.3. At CCKB receptor, the “CCKB pKi” value is given as 7.3. The “Gastrin pKB” value on gastrin turned out to be 8.6.

For `O=C(O)c1cccc(NC(=O)[C@H](Cc2ccccc2)NC(=O)c2cc3[nH]cnc3cc2C(=O)NCC23CC4CC(CC(C4)C2)C3)c1` [Example 79, 5-(1S-(3-carboxyphenylaminocarbonyl)-2-phenylethylaminocarbonyl)-6-(1-adamantanemethylaminocarbonyl)-benzimidazole], the Ki on CCKA is 1000 nM; on CCKB receptor, 20 nM. Moreover, the Kb at gastrin was 100 nM.

`O=C(NCC12CC3CC(CC(C3)C1)C2)c1cc2nc[nH]c2cc1C(=O)N[C@@H](Cc1ccccc1)C(=O)Nc1cc(-c2nn[nH]n2)cc(-c2nn[nH]n2)c1` [Example 80, 5-(1S-(3,5-ditetrazolylphenylaminocarbonyl)-2-phenylethylaminocarbonyl)-6-(1-adamantanemethylaminocarbonyl)-benzimidazole]: the Ki on CCKA is 794 nM; at CCKB receptor, 3.98 nM. The Kb on gastrin is 6.31 nM.

For the origin of these results see patent publication US5795907A, “Gastin and CCK receptor ligands” (James Black Foundation Limited, priority 1994, dated 1998).
